Measurements: patent publication US20150045409A1, “AMIDE COMPOUND AND USE THEREOF FOR PEST CONTROL” (SUMITOMO CHEMICAL COMPANY, LIMITED, priority 2012, published 2015)

Assays:
[1] = system: adult common house mosquitos; assay: Spray knockdown test on adult common house mosquitos (Test Examples 5, 6); format: in vivo; settings: active ingredient 0.02% w/v oil solution, 0.5 ml sprayed, counted after 15 minutes
Description: (§1) The formulations of Compounds (2), (7), (48) and (49) of the present invention obtained in Formulation Example 7 were diluted with a mixture solution with a ratio of isopropyl alcohol/deodorized kerosene of 1/9, so as to have a concentration of active ingredient of 0.1% w/v, to prepare a test drug solution.
Ten adult common house mosquitos were released in a polyethylene cup (a bottom diameter of 10.6 cm) which was then capped with 16-mesh nylon gauze. The polyethylene cup was placed on the bottom of a test chamber (bottom: 46 cm×46 cm, height: 70 cm). From a height of 30 cm above the upper surface of the polyethylene cup, 0.5 ml of the test drug solution was sprayed using a spray gun (a spraying pressure of 0.4 kg/cm^2). Immediately after spraying, the cup was taken out from the test container, and after 15 minutes, the number of knockdown insects was counted to obtain a knockdown rate. The knockdown rate was calculated by the following equation.
Knockdown Rate(%)=(Number of Knockdown Insects/Number of Tested Insects)×100
as §1, with “Each of the” for “The”, “(19)” for “(2), (7), (48)”, “(40) to (42)” for “(49)”, “was” for “were”, “0.02%” for “0.1%”, “solution. […]” for “solution.”

[2] = system: third-instar larvae of diamondback moth (Plutella xylostella); assay: Cabbage foliar spray test on diamondback moth larvae (Test Example 11); format: in vivo; settings: 500 ppm spray, 20 ml/cup on cabbage, after 5 days
Description: On the other hand, a cabbage was planted in a polyethylene cup and grown until the third true leaf or the fourth true leaf was developed. The test spray solution was sprayed in a ratio of 20 ml/cup on the cabbage. After the drug solution sprayed on the cabbage was dried, 10 third-instar larvae of diamondback moth (Plutella xylostella) were put on the cabbage. After 5 days, the number of diamondback moths was counted, and a controlling value was calculated by the following equation. […] Letters in the formula have the following meanings. Cb: the number of insects in an untreated section before treatment Cai: the number of insects in an untreated section on observation Tb: the number of insects in a treated section before treatment Tai: the number of insects in a treated section on observation

Compound | knockdown rate [1] | controlling value [2]
CCCC[C@@H]1C[C@H]1/C=C/C(=O)NCC1CCOC1 (relative stereo) [Compound (19), (E)-N-(tetrahydrofuran-3-ylmethyl)-3-(trans-2′-butylcyclopropyl)-2-propenamide] | ≥ 90% | 
CCCCC1C(/C=C/C(=O)NCC2CCOCC2)C1(C)C (stereo not drawn) [Compound (43), (E)-N-(tetrahydropyran-4-ylmethyl)-3-(trans-2′-butyl-3′,3′-dimethylcyclopropyl)-2-propenamide] |  | 100%
